Measurements published in ChEMBL document CHEMBL1133636, “Discovery of (2S)-1-(4-amino-2,3,5- trimethylphenoxy)-3-[4-[4-(4- fluorobenzyl)phenyl]-1-piperazinyl]-2-propanol dimethanesulfonate (SUN N8075): a dual Na(+) and Ca(2+) channel blocker with antioxidant activity” (J Med Chem, 2000).

Assays:
[1] = Tested for anticonvulsant effects on audiogenic seizures in DBA/2 mice; administered intra peritonealy; assay type: functional; conditions: Mus musculus
D(2) dopamine receptor = D(2) dopamine receptor (Rattus norvegicus, UniProt P61169); test: Concentration required for 50% inhibitory effect on Dopamine receptor D2 determined in competition experiments with [3H]raclopride
D(2) dopamine receptor, sequence (P61169 whole entry): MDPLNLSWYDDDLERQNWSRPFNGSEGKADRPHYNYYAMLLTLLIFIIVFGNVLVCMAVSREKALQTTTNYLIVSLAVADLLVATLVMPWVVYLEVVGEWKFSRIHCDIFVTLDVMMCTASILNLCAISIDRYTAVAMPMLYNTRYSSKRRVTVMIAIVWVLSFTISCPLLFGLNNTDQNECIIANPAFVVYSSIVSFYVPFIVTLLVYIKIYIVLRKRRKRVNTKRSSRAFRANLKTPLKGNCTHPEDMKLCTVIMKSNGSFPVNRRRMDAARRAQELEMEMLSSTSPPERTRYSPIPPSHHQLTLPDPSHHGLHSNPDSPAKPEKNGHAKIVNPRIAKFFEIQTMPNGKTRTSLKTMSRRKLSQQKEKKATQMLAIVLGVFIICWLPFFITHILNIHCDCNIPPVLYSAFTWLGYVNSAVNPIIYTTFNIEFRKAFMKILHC

Rattus norvegicus [2] = organism: Rattus norvegicus; test: Concentration required for 50% inhibitory effect on automatic oxidation in plasma membrane of rat brain homogenates by measuring malondialdehyde and 4-hydroxyalkenals using peroxidized lipid colorimetric assay kit; assay type: functional
[3] = Inhibition of low-threshold (T-type) Calcium [Ca2+] currents in primary cultured rat cerebrocortical neurons using whole-cell voltage-clamp recording technique; assay type: functional
[4] = biological target: Sodium channel alpha subunits; brain (Types I, II, III) (Rattus norvegicus, UniProt P04775+P04774+P08104); test: Inhibition of veratridine-induced depolarization of rat cerebrocortical synaptosomes using a membrane potential sensitive fluorescent dye, rhodamine 6G; assay type: functional, subcellular
Rattus norvegicus [5] = organism: Rattus norvegicus; test: Concentration required for 50% inhibitory effect on automatic oxidation in plasma membrane of rat brain homogenates by measuring malondialdehyde and 4-hydroxyalkenals using peroxidized lipid colorimetric assay kit.; assay type: functional

| IC50 (D(2) dopamine receptor) [µM] | IC50 (Rattus norvegicus [2]) [µM] | IC50 [3] [µM] | IC50 [4] [µM] | IC50 (Rattus norvegicus [5]) [µM] | SMILES | ED50 [1] [mg/kg] |
| --- | --- | --- | --- | --- | --- | --- |
| > 10 | 0.31 | 2 | 0.42 | – | CS(=O)(=O)O.CS(=O)(=O)O.Cc1cc(OC[C@@H](O)CN2CCN(c3ccc(Cc4ccc(F)cc4)cc3)CC2)c(C)c(C)c1N | 6.5 |
| – | – | – | – | > 100 | Cc1c(C)c2c(c(C)c1O)CC[C@@](C)(CCC[C@H](C)CCC[C@H](C)CCCC(C)C)O2 [ALPHA-TOCOPHEROL] | – |
| 1.69 | 20 | 0.3 | 0.36 | – | CC(C)c1ccc(CN2CCN(C(c3ccc(F)cc3)c3ccc(F)cc3)CC2)c(=O)c(NCCO)c1 | 14.5 |
| – | – | 2.2 | – | – | Fc1ccc(C(c2ccc(F)cc2)N2CCN(C/C=C/c3ccccc3)CC2)cc1 [FLUNARIZINE] | 11.4 |
